Source: US20030157062A1, “Method for exterminating termites” (priority 2000, published 2003)

System: Coptotemes formosanus
Test: Indoor testing of termiticidal effect of treated soil (Japan Wood Preserving Association standard number 13, 1992)
Assay type: in vivo
Method: The following tests (test numbers 1 to 16) were carried out based on testing methods and qualitative standards (I) for termiticidal effects of termiticide for soil treating (Japan Wood Preserving Association standard number 13, 1992). In the tests using entomopathogenic nematodes, operation of diffusive volatilization was not carried out.
The bottom portions of these two glass bottles are connected with a glass tube (3) of 15 mm in diameter and 100 mm in length.
In one of the glass bottles of the testing container, about 60 g of a non-treated soil (5) having an adjusted moisture content of about 25% is placed, and in the other glass bottle, about 3 g of Japanese red pine wood blocks are placed, and in the central 50 mm portion of the glass tube, a treated soil for testing (6) is placed.
In the glass bottle containing a non-treated soil, Coptotemes formosanus taken out from a nest was placed, and the upper portions of the glass bottles were covered with aluminum foil. Cumulative mortality rates after 0, 3, 5, 7, 10 and 14 days, respectively, were examined. […]

[1] = 10 ppm of insect-growth regulator singly in treated soil, 0 days elapsed
[2] = 10 ppm of insect-growth regulator singly in treated soil, 3 days elapsed
[3] = 10 ppm of insect-growth regulator singly in treated soil, 5 days elapsed
[4] = 10 ppm of insect-growth regulator singly in treated soil, 7 days elapsed
[5] = 10 ppm of insect-growth regulator singly in treated soil, 10 days elapsed
[6] = 10 ppm of insect-growth regulator singly in treated soil, 14 days elapsed
[7] = 20 ppm of insect-growth regulator singly in treated soil, 0 days elapsed
[8] = 20 ppm of insect-growth regulator singly in treated soil, 3 days elapsed
[9] = 20 ppm of insect-growth regulator singly in treated soil, 5 days elapsed
[10] = 20 ppm of insect-growth regulator singly in treated soil, 7 days elapsed
[11] = 20 ppm of insect-growth regulator singly in treated soil, 10 days elapsed
[12] = 20 ppm of insect-growth regulator singly in treated soil, 14 days elapsed
[13] = 50 ppm of insect-growth regulator singly in treated soil, 0 days elapsed
[14] = 50 ppm of insect-growth regulator singly in treated soil, 3 days elapsed
[15] = 50 ppm of insect-growth regulator singly in treated soil, 5 days elapsed
[16] = 50 ppm of insect-growth regulator singly in treated soil, 7 days elapsed
[17] = 50 ppm of insect-growth regulator singly in treated soil, 10 days elapsed
[18] = 50 ppm of insect-growth regulator singly in treated soil, 14 days elapsed

O=C(NC(=O)c1c(F)cccc1F)Nc1ccc(Cl)cc1 [Diflubenzuron, N-[[(4-chlorophenyl)amino]carbonyl]-2,6-difluorobenzamide]
Cumulative mortality rate (%) after a lapse of days [1]: 0% | Cumulative mortality rate (%) after a lapse of days [2]: 10% | Cumulative mortality rate (%) after a lapse of days [3]: 15% | Cumulative mortality rate (%) after a lapse of days [4]: 20% | Cumulative mortality rate (%) after a lapse of days [5]: 40% | Cumulative mortality rate (%) after a lapse of days [6]: 50% | Cumulative mortality rate (%) after a lapse of days [7]: 0% | Cumulative mortality rate (%) after a lapse of days [8]: 25% | Cumulative mortality rate (%) after a lapse of days [9]: 35% | Cumulative mortality rate (%) after a lapse of days [10]: 40% | Cumulative mortality rate (%) after a lapse of days [11]: 50% | Cumulative mortality rate (%) after a lapse of days [12]: 60% | Cumulative mortality rate (%) after a lapse of days [13]: 0% | Cumulative mortality rate (%) after a lapse of days [14]: 35% | Cumulative mortality rate (%) after a lapse of days [15]: 45% | Cumulative mortality rate (%) after a lapse of days [16]: 50% | Cumulative mortality rate (%) after a lapse of days [17]: 55% | Cumulative mortality rate (%) after a lapse of days [18]: 70%

O=C(NC(=O)c1c(F)cccc1F)Nc1cc(Cl)c(F)c(Cl)c1F [Teflubenzuron, N-[[(3,5-dichloro-2,4-difluorophenyl)amino]carbonyl]-2,6-difluorobenzamide]
Cumulative mortality rate (%) after a lapse of days [1]: 0% | Cumulative mortality rate (%) after a lapse of days [2]: 20% | Cumulative mortality rate (%) after a lapse of days [3]: 25% | Cumulative mortality rate (%) after a lapse of days [4]: 30% | Cumulative mortality rate (%) after a lapse of days [5]: 30% | Cumulative mortality rate (%) after a lapse of days [6]: 55% | Cumulative mortality rate (%) after a lapse of days [7]: 0% | Cumulative mortality rate (%) after a lapse of days [8]: 30% | Cumulative mortality rate (%) after a lapse of days [9]: 45% | Cumulative mortality rate (%) after a lapse of days [10]: 50% | Cumulative mortality rate (%) after a lapse of days [11]: 60% | Cumulative mortality rate (%) after a lapse of days [12]: 70% | Cumulative mortality rate (%) after a lapse of days [13]: 0% | Cumulative mortality rate (%) after a lapse of days [14]: 40% | Cumulative mortality rate (%) after a lapse of days [15]: 60% | Cumulative mortality rate (%) after a lapse of days [16]: 70% | Cumulative mortality rate (%) after a lapse of days [17]: 80% | Cumulative mortality rate (%) after a lapse of days [18]: 90%

O=C(NC(=O)c1c(F)cccc1F)Nc1ccc(OC(F)(F)C(F)OC(F)(F)F)c(Cl)c1 (centres unmarked) [novaluron, N-[[[3-chloro-4-(1,1,2-trifluoro-2-trifluoromethoxyethoxy)phenyl]amino]carbonyl]-2,6-difluorobenzamide]
Cumulative mortality rate (%) after a lapse of days [1]: 0% | Cumulative mortality rate (%) after a lapse of days [2]: 20% | Cumulative mortality rate (%) after a lapse of days [3]: 30% | Cumulative mortality rate (%) after a lapse of days [4]: 35% | Cumulative mortality rate (%) after a lapse of days [5]: 40% | Cumulative mortality rate (%) after a lapse of days [6]: 80% | Cumulative mortality rate (%) after a lapse of days [7]: 0% | Cumulative mortality rate (%) after a lapse of days [8]: 30% | Cumulative mortality rate (%) after a lapse of days [9]: 45% | Cumulative mortality rate (%) after a lapse of days [10]: 100% | Cumulative mortality rate (%) after a lapse of days [13]: 0% | Cumulative mortality rate (%) after a lapse of days [14]: 40% | Cumulative mortality rate (%) after a lapse of days [15]: 60% | Cumulative mortality rate (%) after a lapse of days [16]: 100%
